Results on 5 compounds are retold here after patent US12649750B2, “Macrocyclic compounds, compositions, and methods of using thereof” (Sionna Therapeutics Inc., priority 2022, dated 2026).

One experiment concerns the target T1, NBD1 (Homo sapiens, UniProt P13569).
T1 construct: Purified recombinant NBD1 was produced using previously described methods; made in house
Put plainly: Aggregation analysis using differential static light scattering (DSLS), thermal stability of NBD1 (ΔTagg). The experiment is classed as binding. The settings on record: ΔTagg versus DMSO control, NBD1 0.2 mg/ml. In outline:
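Stabilisation is measured as the shift in aggregation onset of recombinant NBD1 (0.2 mg/ml, 2 mM ATP, 5 mM MgCl2, pH7.6) exposed to compound. Images are taken every 0.5° C. while heating at 1° C. per minute, and the inflection-point Tagg is corrected by the DMSO mean.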

The next experiment has as its target T2, CFTR (Homo sapiens, UniProt P13569, DEL508-508).
T2 construct: Primary human bronchial epithelial cells from a ΔF508 homozygous CF donor; host or cells: primary human bronchial epithelial cells (CF-HBE), ΔF508 homozygous donor
Put plainly: TECC24 AUC fold over DMSO @10 μM, CFTR-mediated transepithelial chloride transport in CF-HBE cells. The experiment is classed as cell-based. The settings on record: test agent AUC divided by DMSO vehicle AUC, primary CF-HBE cells, ΔF508 homozygous donor, 48 hours incubation. The procedure, abridged:
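Primary ΔF508-homozygous CF bronchial epithelial cells on inserts were incubated 48 h at 36.5 °C with compound in IL-13-containing medium. VT and TEER were then recorded in current-clamp mode (pH 7.4 HEPES bath) with benzamil 10 μM, forskolin 10 μM, then CFTR inhibitor-172 20 μM. The IEQ AUC between forskolin and inhibitor was divided by vehicle AUC.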

SMILES strings stand for the structures.

T1 sequence (P13569 423-646 limits assumed): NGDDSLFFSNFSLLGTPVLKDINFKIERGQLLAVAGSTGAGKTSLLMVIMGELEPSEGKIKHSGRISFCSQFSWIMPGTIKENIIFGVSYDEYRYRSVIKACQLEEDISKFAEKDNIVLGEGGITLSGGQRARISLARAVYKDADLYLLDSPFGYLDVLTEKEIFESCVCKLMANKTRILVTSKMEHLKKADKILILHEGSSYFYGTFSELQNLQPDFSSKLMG
T2 sequence (P13569 with tags, fused parts or gaps DEL508-508): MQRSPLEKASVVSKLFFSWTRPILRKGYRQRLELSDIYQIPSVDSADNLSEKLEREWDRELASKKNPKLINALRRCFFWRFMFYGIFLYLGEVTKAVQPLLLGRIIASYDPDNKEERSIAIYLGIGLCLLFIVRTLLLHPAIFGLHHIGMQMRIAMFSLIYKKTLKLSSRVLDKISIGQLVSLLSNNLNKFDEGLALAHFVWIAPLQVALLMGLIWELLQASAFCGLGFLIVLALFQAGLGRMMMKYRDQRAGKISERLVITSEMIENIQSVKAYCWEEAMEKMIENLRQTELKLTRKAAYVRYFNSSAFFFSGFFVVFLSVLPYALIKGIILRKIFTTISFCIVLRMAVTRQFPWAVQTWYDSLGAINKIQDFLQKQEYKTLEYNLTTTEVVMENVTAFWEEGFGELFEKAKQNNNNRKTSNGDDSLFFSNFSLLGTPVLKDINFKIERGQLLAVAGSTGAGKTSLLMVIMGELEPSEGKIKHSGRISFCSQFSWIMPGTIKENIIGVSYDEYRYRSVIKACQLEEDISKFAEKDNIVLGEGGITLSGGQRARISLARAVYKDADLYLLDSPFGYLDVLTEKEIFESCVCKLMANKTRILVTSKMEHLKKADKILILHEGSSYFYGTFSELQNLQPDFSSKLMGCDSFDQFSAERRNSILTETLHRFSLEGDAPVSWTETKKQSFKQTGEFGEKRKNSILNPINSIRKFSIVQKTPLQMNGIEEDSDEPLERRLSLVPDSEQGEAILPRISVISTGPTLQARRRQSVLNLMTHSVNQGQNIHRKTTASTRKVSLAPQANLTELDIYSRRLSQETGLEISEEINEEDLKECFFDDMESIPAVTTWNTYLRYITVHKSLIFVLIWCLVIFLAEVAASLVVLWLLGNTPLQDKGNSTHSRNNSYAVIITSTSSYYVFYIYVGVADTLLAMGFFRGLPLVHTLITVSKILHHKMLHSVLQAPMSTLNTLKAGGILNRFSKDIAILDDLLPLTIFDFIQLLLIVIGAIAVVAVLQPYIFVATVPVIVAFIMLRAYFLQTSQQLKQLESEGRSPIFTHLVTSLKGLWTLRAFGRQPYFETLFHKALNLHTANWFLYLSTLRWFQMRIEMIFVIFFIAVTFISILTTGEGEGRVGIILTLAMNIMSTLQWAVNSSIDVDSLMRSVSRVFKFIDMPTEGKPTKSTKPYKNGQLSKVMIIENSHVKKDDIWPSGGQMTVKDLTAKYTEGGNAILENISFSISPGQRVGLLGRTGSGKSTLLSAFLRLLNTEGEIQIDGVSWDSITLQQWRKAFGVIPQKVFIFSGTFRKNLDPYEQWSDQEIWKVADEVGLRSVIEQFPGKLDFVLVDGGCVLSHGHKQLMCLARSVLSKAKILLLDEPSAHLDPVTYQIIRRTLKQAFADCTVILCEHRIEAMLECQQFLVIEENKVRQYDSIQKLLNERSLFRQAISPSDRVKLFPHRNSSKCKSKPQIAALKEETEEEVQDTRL

In the case of `C/C(=C\c1cc(F)cc(C2(C)CCCC(C)(C)CS(=O)(=O)CCc3c(c(F)c(F)c4[nH]ccc34)Oc3ccc(F)c(c3)-c3nc2nn3C)c1)C(=O)O` (single isomer, unassigned) [Compound 17B, (E)-3-(3-fluoro-5-((Z)-26,46,47-trifluoro-11,9,9,13-tetramethyl-7,7-dioxido-1I1H,41H-3-oxa-7-thia-4(5,4)-indola-1(5,3)-triazola-2(1,3)-benzenacyclotridecaphane-13-yl)phenyl)-2-methylacrylic acid], on NBD1, the “DSLS 3D (100 μM ΔT)” value was “C (a value greater than 10 °C and less than or equal to 25 °C is marked “C”)”. The “TECC (AUC, 10 μM)” value on CFTR is recorded as “A (a TECC value less than 12 is marked “A”)”.

Regarding `[2H]C([2H])([2H])C1(c2cccc(CC(C)C(=O)O)c2F)CCCC(C)(C)CS(=O)(=O)CCc2c(c(F)cc3[nH]ccc23)Oc2ccc(F)c(c2)-c2nc1nn2C` (single isomer, unassigned) [Compound 18A, 3-[3-[22,28-difluoro-3,10,10-trimethyl-12,12-dioxo-6-(trideuteriomethyl)-24-oxa-12lambda6-thia-3,4,19,30-tetrazapentacyclo[23.3.1.12,5.015,23.016,20]triaconta-1(29),2(30),4,15,17,20,22,25,27-nonaen-6-yl]-2-fluoro-phenyl]-2-methyl-propanoic acid], the “DSLS 3D (100 μM ΔT)” value on NBD1 is “B (a value above 5 °C and less than or equal to 10 °C is marked “B”)”. Besides, the “TECC (AUC, 10 μM)” value at CFTR is “A (a TECC value less than 12 is marked “A”)”.

With `[2H]C([2H])([2H])C1(c2cccc(CC(C)C(=O)O)c2F)CCCC(C)(C)CS(=O)(=O)CCc2c(c(F)cc3[nH]ccc23)Oc2ccc(F)c(c2)-c2nc1nn2C` (single isomer, unassigned) [Compound 18B, 3-[3-[22,28-difluoro-3,10,10-trimethyl-12,12-dioxo-6-(trideuteriomethyl)-24-oxa-12lambda6-thia-3,4,19,30-tetrazapentacyclo[23.3.1.12,5.015,23.016,20]triaconta-1(29),2(30),4,15,17,20,22,25,27-nonaen-6-yl]-2-fluoro-phenyl]-2-methyl-propanoic acid], at NBD1, the “DSLS 3D (100 μM ΔT)” value is “C (a value greater than 10 °C and less than or equal to 25 °C is marked “C”)”. Besides, the “TECC (AUC, 10 μM)” value on CFTR was “B (a value between 12-20 is marked “B”)”.

For `CC(Oc1cccc(C2(C)CCCC(C)(C)CS(=O)(=O)CCc3c(c(F)cc4[nH]ccc34)Oc3ccc(F)c(c3)-c3nc2nn3C)c1)C(=O)O` (single isomer, unassigned) [Compound 19A, 2-[3-[22,28-difluoro-3,6,10,10-tetramethyl-12,12-dioxo-24-oxa-12 6-thia-3,4,19,30-tetrazapentacyclo[23.3.1.12,5.015,23.016,20]triaconta-1(29),2(30),4,15,17,20,22,25,27-nonaen-6-yl]phenoxy]propanoic Acid], at NBD1, the “DSLS 3D (100 μM ΔT)” value was “C (a value greater than 10 °C and less than or equal to 25 °C is marked “C”)”. On CFTR, the “TECC (AUC, 10 μM)” value is “C (a value between 20 and 80 is marked “C”)”.

Turning to `CC(Cc1cccc(C2(C#N)CCCC(C)(C)CS(=O)(=O)CCc3c(c(F)cc4[nH]ccc34)Oc3ccc(F)c(c3)-c3nc2nn3C)c1)C(=O)O` (single isomer, unassigned) [Compound 20A, 3-[3-[6-cyano-22,28-difluoro-3,10,10-trimethyl-12,12-dioxo-24-oxa-12lambda6-thia-3,4,19,30-tetrazapentacyclo[23.3.1.12,5.015,23.016,20]triaconta-1(29),2(30),4,15,17,20,22,25,27-nonaen-6-yl]phenyl]-2-methyl-propanoic Acid], the “DSLS 3D (100 μM ΔT)” value at NBD1 was “C (a value greater than 10 °C and less than or equal to 25 °C is marked “C”)”. Also, the “TECC (AUC, 10 μM)” value on CFTR is “C (a value between 20 and 80 is marked “C”)”.
